Earlier results as cited in patent US20130316010A1, “POLYMERIC MICROPARTICLES” (Case Western Reserve University, priority 2010, published 2013).

System: EGFR
Conditions: rodent glaucomatous optic neuropathy model and optic nerve crush model

AG1478
EGFR upregulation and activation of astrocytes: reverses this upregulation and activation of astrocytes | survival of RGCs: increases the survival of RGCs
